Source: the supplement of paper PMC10307832

What follows are cell lines tested with C[C@@]1(C(=O)Nc2ccc(F)nc2)CCCN1c1nc(Nc2cc(C3CC3)n[nH]2)c2cccn2n1 + NC(=O)Nc1cc(-c2cccc(F)c2)sc1C(=O)N[C@H]1CCCNC1 [AZD7762] (partner 0.2 µM) (assay: relative viability (nuclei count vs DMSO), 5 days (fraction); higher = more cells survive). Settings: first compound 0.04 µM.
In short: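 Nuclei were stained with Hoechst during a one-step fixation (final 0.05% Triton X-100, 1% formaldehyde, 1 ug/ml Hoechst) carried out 5 days after dosing, then counted on 4× images. The cells, lung cancer lines in 1536-well plates, had been dosed by pin tool the day after seeding with one drug alone or a fixed anchor-drug dose plus five library-drug doses (not always all listed) in √10 steps. Relative viability is the nuclei count in treated wells divided by that in vehicle wells, and each value is the median of duplicate plates.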

In order of rising relative viability:
1. EPLC-272H  0.215
2. NCI-H23  0.238
3. HCC-827  0.273
4. LCLC-97TM1  0.284
5. PC-14  0.391
6. NCI-H1395  0.395
7. NCI-H647  0.402
8. NCI-H1792  0.446
9. NCI-H1793  0.463
10. NCI-H1755  0.481
11. NCI-H1651  0.52
12. NCI-H1944  0.53
13. NCI-H1734  0.54
14. 201T  0.623
15. A-427  0.64
16. NCI-H1975  0.64
17. LC-2-ad  0.657
18. EKVX  0.671
19. NCI-H2347  0.68
20. NCI-H1355  0.694
21. NCI-H1915  0.728
22. NCI-H460  0.737
23. NCI-H3122  0.79
24. RERF-LC-KJ  0.976
25. NCI-H1437  1
26. NCI-H441  1.07
27. HCC-15  1.07
28. LXF-289  1.1

Same assay, conditions: first compound 0.1265 µM

In order of rising relative viability:
1. EPLC-272H  0.187
2. HCC-827  0.19
3. NCI-H23  0.208
4. HARA  0.227
5. LCLC-97TM1  0.234
6. LU99A  0.243
7. NCI-H1792  0.277
8. NCI-H1651  0.371
9. PC-14  0.394
10. NCI-H1395  0.416
11. HCC-78  0.419
12. NCI-H322M  0.424
13. NCI-H1755  0.424
14. NCI-H1734  0.459
15. NCI-H2405  0.483
16. NCI-H1944  0.497
17. NCI-H1793  0.501
18. EKVX  0.505
19. HOP-62  0.541
20. 201T  0.575
21. NCI-H1355  0.579
22. LC-2-ad  0.586
23. NCI-H647  0.591
24. A-427  0.642
25. BEN  0.645
26. NCI-H441  0.651
27. NCI-H460  0.667
28. RERF-LC-KJ  0.688
29. NCI-H1915  0.731
30. NCI-H2347  0.765
31. NCI-H2170  0.864
32. NCI-H3122  0.88
33. HCC-44  0.954
34. NCI-H1975  0.98
35. LXF-289  1.03
36. HCC-15  1.18
37. NCI-H1437  1.25

Same assay, conditions: first compound 0.4 µM

In order of falling relative viability:
1. HCC-44  0.989
2. NCI-H2170  0.744
3. HARA  0.73
4. BEN  0.67
5. A-427  0.647
6. NCI-H441  0.528
7. NCI-H322M  0.492
8. NCI-H2405  0.472
9. HOP-62  0.427
10. HCC-78  0.418
11. NCI-H1734  0.377
12. LU99A  0.223
13. LCLC-97TM1  0.134
